Experimental data reported in patent US20230212523A1, “CULTURE MEDIUM FOR LARYNGEAL CANCER EPITHELIAL CELLS, CULTURE METHOD, AND APPLICATION THEREOF” (CAS (Hefei) Institute of Technology Innovation, priority 2020, published 2023).

System: primary laryngeal cancer cells (No. 0S0064)
Assay: Effects of different factors added to basic medium BM on proliferation of primary laryngeal cancer cells (cell count)
Format: cell-based, human
Details: factor added to BM, in specific concentration ranges; 10 days of culture on irradiated NIH-3T3; FIGS. 1A-1F
Description: The cultured NIH-3T3 cells (purchased from ATCC, and cultured in DMEM culture solution containing 10% fetal bovine serum) were digested with 0.25% trypsin (purchased from Thermo Fisher), and the digestion was terminated by using DMEM culture solution (purchased from Corning) containing 5%(v/v) fetal bovine serum (purchased from ExCell Biotech Co., Ltd.), 100 U/mL penicillin and 100 μg/mL streptomycin; the resultant was collected into a 15 mL centrifuge tube and centrifuged at 1500 rpm for 4 minutes, and then the supernatant was discarded. The centrifuged cell sediments were resuspended in the above DMEM culture solution containing 10% fetal bovine serum and were counted with a flow imaging counter (JIMBIO FIL, Jiangsu Jimbio Technology Co., Ltd.). The cells were irradiated with γ-ray of 35 Gy irradiation dose, and then were inoculated in a culture vessel at a density of 2×10^4 cells/cm^2. The cells were incubated in a 37° C. incubator until the cells adhere to the wall. Before the inoculation of primary cells, the culture medium was removed from the culture vessel.
Preparation of basic medium (abbreviated as BM): BM was prepared by adding 0.2 vol. % of Primocin (purchased from Invivogen, with a concentration of 50 mg/mL) to the commercial DMEM/F-12 medium to provide a final concentration of 100 μg/mL.
Next, different kinds and concentrations of additive factors (Table 3) were added to the basic medium (BM), so as to prepare culture mediums for laryngeal cancer epithelial cells containing different additive components.
The culture mediums with different components were added at a volume of 500 μl/well to 48-well plates which were pre-laid with γ-ray irradiated NIH-3T3 cells. Laryngeal cancer cells (No. 0S0064) isolated from laryngeal cancer tissue according to the same method as described in Example 1 were inoculated at a cell count of 4×10^4cells/well in the above-mentioned 48-well culture plates which were pre-laid with γ-ray irradiated NIH-3T3 cells. After surface disinfection, the plates were placed in a 37° C., 5% CO2 incubator (purchased from Thermo Fisher), such that equal numbers of freshly isolated laryngeal cancer cells (No. 0S0064) were cultured under different medium formulations. The culture mediums were replaced and the trophoblastic cells were supplemented every 4 days. after the start of culture. After 10 days of culture, cell counts were performed. The basic medium (BM) without addition of any additive was used as the experimental control.
As shown in the figures, adding different concentrations of different factors according to Table 3 to BM would result in different effects on cell proliferation.

**Q.** With `CN1C(=O)C(c2c(F)cccc2F)N(C)c2nc(Nc3ccc(S(N)(=O)=O)cc3)ncc21` (stereo not drawn) [Compound 1, 4-((7-(2,6-difluorophenyl)-5,8-dimethyl-6-oxo-5,6,7,8-tetrahydropteridin-2-yl)amino)benzsulfamide] as the molecule, how does the “effect on cell proliferation (ratio of cell number to that in basic medium BM)” value read?
**A.** certain promoting effects on cell proliferation

**Q.** `C[C@@H](N)[C@H]1CC[C@H](C(=O)Nc2ccncc2)CC1` [Compound Y27632, Y27632, reference compound] was tested. Which “effect on cell proliferation (ratio of cell number to that in basic medium BM)” value did it give?
**A.** certain promoting effects on cell proliferation

**Q.** How did the “effect on cell proliferation (ratio of cell number to that in basic medium BM)” value turn out when `Cc1cccc(-c2nn(C(=S)Nc3ccccc3)cc2-c2ccnc3ccccc23)n1` [Compound A83-C1, A83-C1, reference compound] was run?
**A.** certain promoting effects on cell proliferation

**Q.** How did the “effect on cell proliferation (ratio of cell number to that in basic medium BM)” value turn out when “insulin-like growth factor 1: growth factor from Sino Biological” was run?
**A.** certain promoting effects on cell proliferation

**Q.** “hepatocyte growth factor: growth factor from Sino Biological” was tested. Which “effect on cell proliferation (ratio of cell number to that in basic medium BM)” value did it give?
**A.** certain promoting effects on cell proliferation

B1: fibroblast growth factor 7: growth factor from Sino Biological (protein, UniProt P21781 32-194, looked up)
Fibroblast growth factor 7: CNDMTPEQMATNVNCSSPERHTRSYDYMEGGDIRVRRLFCRTQWYLRIDKRGKVKGTQEMKNNYNIMEIRTVAVGIVAIKGVESEFYLAMNKEGKLYAKKECNEDCNFKELILENHYNTYASAKWTHNGGEMFVALNQKGIPVRGKKTKKEQKTAHFLPMAIT
**Q.** Which “effect on cell proliferation (ratio of cell number to that in basic medium BM)” value does the source give for B1 here?
**A.** certain promoting effects on cell proliferation
